Experimental data as given in ChEMBL document CHEMBL4602694, “Suppression of Drug-Resistant Non-Small-Cell Lung Cancer with Inhibitors Targeting Minichromosomal Maintenance Protein” (J Med Chem, 2020).

Experiments:
NCI-H1975 [1] = experiment: Antiproliferative activity against human NCI-H1975 cells assessed as reduction in cell viability incubated for 72 hrs by SRB assay; format: functional, cell-based; details: NCI-H1975, 72 h
NCI-H1975 [2] = experiment: Potency index, ratio of IC50 of AS4583 to IC50 of compound for Antiproliferative activity against human NCI-H1975 cells assessed as reduction in cell viability incubated for 72 hrs by SRB assay; format: functional
NCI-H1975 [3] = experiment: Antitumor activity against human NCI-H1975 cells xenografted in athymic nude BALB/c mouse assessed as tumor size at 4 mg/kg, ip administered for 4 weeks (reference value: 546.2 +/- 95.2 cu.mm); format: functional
NCI-H1975 [4] = experiment: Antitumor activity against human NCI-H1975 cells xenografted in athymic nude BALB/c mouse assessed as tumor size at 1 mg/kg, ip administered for 4 weeks (reference value: 546.2 +/- 95.2 cu.mm); format: functional
Hs68 = experiment: Cytotoxicity against human HS68 cells assessed as reduction in cell viability incubated for 72 hrs by SRB assay; format: cell-based; details: Hs68, 72 h

| IC50 (NCI-H1975 [1]) [nM] | SMILES | also measured |
| --- | --- | --- |
| 918 | Cc1oc2c(c1C(=O)NCCCn1cccc1)C(=O)c1ccccc1C2=O | – |
| 80 | Cc1oc2c(c1C(=O)NCCCN1CCOCC1)C(=O)c1ccccc1C2=O | – |
| 8730 | Cc1[nH]c2c(c1C(=O)NCCCn1ccnc1)C(=O)c1ccccc1C2=O | Ratio IC50 (NCI-H1975 [2]): 100 |
| 288 | CCc1oc2c(c1C(=O)NCCCn1ccnc1)C(=O)c1ccccc1C2=O | – |
| 826 | O=C1c2ccccc2C(=O)c2c1oc(-c1ccccc1)c2C(=O)NCCCn1ccnc1 | – |

Second part, the molecule before the results:

| SMILES | IC50 (NCI-H1975 [1]) [nM] | also measured |
| --- | --- | --- |
| Cc1oc2c(c1C(=O)NCCCCc1ccccc1)C(=O)c1ccccc1C2=O | > 10000 | – |
| Cc1oc2c(c1C(=O)NCCCCn1ccnc1)C(=O)c1ccccc1C2=O | 250 | – |
| Cc1oc2ccccc2c1C(=O)NCCCn1ccnc1 | > 10000 | – |
| Cc1oc2c(c1C(=O)NCCCn1ccnc1)C(=O)c1ccc(F)cc1C2=O | 17 | Activity (NCI-H1975 [3]): 109.5 mm3; Activity (NCI-H1975 [4]): 128.2 mm3 |
| CC(C)c1oc2c(c1C(=O)NCCCn1ccnc1)C(=O)c1ccccc1C2=O | 260 | – |
| Cc1oc2c(c1C(=O)NCCCN1CCCC1)C(=O)c1ccccc1C2=O | 24 | IC50 (Hs68): 77 nM |
| Cc1oc2c(c1C(=O)NCCn1ccnc1)C(=O)c1ccccc1C2=O | 280 | – |
